Measured values published in patent publication US9492471B2, “Methods of treating a disease or disorder associated with Bruton'S Tyrosine Kinase” (Celgene Avilomics Research, Inc., priority 2013, dated 2016).
Where two headings read alike, the source gives them in different places.

Assays:
Assay in all cases: HotSpot kinase profiling
Format in all cases: biochemical
[1] = molecular target: T1, CAMKK2 (Homo sapiens, UniProt Q96RR4)
T1 construct: purchased Reaction Biology Corp
Outline: (§1)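 Activity is measured by radiolabel transfer captured on P81 filters after a 2 h room-temperature reaction of kinase, substrate and cofactors. Values are percent inhibition against DMSO.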

[2] = molecular target: T2, DDR1 (Homo sapiens, UniProt Q08345)
T2 construct: purchased Reaction Biology Corp
T2 sequence (Q08345 19-913): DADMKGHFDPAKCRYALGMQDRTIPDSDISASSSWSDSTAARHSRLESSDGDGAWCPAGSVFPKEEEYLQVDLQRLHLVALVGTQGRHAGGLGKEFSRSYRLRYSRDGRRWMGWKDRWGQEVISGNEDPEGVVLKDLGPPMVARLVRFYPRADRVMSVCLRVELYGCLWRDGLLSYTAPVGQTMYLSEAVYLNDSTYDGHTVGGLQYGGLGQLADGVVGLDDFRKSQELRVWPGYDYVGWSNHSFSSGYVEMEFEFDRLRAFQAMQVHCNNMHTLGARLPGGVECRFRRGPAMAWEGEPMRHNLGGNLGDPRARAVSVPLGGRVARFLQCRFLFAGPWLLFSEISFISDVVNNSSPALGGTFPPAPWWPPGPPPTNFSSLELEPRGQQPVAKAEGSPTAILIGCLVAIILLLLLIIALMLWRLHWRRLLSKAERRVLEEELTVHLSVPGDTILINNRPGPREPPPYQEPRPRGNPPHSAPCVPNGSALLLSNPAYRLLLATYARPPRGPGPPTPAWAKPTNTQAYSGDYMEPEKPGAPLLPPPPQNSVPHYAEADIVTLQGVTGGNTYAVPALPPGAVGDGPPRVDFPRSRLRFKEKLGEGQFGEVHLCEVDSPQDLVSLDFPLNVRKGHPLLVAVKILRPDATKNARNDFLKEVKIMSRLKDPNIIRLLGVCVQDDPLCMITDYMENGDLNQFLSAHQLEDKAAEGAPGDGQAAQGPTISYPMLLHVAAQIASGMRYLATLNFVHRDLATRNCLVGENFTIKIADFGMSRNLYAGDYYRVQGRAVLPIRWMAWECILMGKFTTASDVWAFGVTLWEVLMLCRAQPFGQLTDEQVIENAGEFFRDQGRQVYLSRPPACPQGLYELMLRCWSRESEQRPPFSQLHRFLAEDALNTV
Outline: as §1

[3] = molecular target: T3, CDK1/cyclin A (Homo sapiens, UniProt P06493)
T3 construct: purchased Reaction Biology Corp
T3 sequence (P06493 whole entry): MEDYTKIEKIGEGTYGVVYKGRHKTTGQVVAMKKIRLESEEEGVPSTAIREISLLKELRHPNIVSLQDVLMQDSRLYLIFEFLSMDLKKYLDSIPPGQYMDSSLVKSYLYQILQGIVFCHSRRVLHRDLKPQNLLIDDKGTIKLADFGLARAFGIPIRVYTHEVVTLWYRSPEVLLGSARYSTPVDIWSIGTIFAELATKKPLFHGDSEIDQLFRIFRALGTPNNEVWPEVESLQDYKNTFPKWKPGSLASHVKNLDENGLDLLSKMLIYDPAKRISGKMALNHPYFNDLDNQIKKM
T3 sequence (P20248 whole entry partner): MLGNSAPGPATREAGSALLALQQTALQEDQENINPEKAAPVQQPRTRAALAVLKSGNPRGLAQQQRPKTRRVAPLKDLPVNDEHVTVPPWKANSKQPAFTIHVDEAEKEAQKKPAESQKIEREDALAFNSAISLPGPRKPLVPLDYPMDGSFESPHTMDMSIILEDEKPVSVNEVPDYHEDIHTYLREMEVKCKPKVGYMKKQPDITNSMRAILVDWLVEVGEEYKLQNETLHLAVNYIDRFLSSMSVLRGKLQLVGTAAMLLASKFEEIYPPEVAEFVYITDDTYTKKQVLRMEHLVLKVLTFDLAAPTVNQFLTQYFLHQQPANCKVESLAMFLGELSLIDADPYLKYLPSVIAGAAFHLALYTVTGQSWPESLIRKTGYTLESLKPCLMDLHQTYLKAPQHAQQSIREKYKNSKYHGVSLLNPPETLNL
Outline: as §1

[4] = molecular target: T4, EPHB1 (Homo sapiens, UniProt P54762)
T4 construct: purchased Reaction Biology Corp
T4 sequence (P54762 18-984): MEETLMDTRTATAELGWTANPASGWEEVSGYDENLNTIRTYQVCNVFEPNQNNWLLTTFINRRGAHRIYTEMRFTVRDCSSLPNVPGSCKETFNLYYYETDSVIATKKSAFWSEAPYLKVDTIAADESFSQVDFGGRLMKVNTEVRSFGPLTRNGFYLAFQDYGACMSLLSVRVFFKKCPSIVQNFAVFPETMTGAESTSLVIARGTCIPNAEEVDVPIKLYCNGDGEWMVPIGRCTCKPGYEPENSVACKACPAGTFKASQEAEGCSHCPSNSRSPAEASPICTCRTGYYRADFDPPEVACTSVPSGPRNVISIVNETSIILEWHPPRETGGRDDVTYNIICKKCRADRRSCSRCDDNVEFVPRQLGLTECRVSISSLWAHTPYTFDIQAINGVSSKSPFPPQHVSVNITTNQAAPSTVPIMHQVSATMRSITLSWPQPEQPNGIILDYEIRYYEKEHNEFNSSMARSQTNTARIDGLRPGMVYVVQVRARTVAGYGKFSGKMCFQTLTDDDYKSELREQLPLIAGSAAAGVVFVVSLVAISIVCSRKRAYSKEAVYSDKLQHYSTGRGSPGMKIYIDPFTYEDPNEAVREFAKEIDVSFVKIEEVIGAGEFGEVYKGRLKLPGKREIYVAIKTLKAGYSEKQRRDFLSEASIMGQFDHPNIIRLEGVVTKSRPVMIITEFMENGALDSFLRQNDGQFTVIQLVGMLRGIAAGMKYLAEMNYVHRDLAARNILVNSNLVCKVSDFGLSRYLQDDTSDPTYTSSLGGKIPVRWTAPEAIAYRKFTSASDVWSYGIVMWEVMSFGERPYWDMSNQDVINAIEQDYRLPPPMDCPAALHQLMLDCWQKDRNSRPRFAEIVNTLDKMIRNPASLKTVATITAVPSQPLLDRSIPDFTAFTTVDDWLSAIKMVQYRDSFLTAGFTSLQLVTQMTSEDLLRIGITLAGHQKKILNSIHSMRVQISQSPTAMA
Outline: as §1

[5] = molecular target: T5, MEKK3 (Homo sapiens, UniProt Q99759)
T5 construct: purchased Reaction Biology Corp
T5 sequence (Q99759 1-626): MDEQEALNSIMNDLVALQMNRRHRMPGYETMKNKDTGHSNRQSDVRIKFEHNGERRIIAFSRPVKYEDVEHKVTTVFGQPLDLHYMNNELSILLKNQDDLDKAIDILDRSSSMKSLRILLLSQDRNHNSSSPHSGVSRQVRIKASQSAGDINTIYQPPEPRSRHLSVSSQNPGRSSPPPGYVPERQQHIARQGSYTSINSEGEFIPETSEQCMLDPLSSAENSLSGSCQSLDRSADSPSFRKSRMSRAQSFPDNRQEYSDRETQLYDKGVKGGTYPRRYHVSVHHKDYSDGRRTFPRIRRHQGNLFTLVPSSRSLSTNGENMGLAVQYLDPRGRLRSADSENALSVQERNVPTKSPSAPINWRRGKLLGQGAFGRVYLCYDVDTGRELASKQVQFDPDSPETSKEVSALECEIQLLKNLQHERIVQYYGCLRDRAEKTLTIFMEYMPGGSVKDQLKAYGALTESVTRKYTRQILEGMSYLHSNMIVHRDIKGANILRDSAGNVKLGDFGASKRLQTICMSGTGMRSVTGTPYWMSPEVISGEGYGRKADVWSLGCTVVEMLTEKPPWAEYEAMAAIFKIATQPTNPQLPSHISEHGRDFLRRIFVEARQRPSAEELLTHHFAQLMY
Outline: as §1

[6] = molecular target: T6, CDK1/cyclin B (Homo sapiens, UniProt P06493)
T6 construct: purchased Reaction Biology Corp
T6 sequence (P06493 whole entry): as the sequence (P06493 whole entry) above
T6 sequence (P14635 whole entry partner): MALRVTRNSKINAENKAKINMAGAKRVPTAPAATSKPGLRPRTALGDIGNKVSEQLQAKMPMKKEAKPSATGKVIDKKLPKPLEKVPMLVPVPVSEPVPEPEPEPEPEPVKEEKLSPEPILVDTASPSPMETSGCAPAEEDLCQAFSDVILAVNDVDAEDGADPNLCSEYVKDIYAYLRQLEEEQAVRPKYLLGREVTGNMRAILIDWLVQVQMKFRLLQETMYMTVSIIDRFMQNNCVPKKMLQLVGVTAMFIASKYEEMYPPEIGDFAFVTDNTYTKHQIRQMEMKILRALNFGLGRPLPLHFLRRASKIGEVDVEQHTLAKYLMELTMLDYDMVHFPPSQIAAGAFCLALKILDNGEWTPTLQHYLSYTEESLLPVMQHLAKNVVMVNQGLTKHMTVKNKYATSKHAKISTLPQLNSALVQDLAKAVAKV
Outline: as §1

[7] = read-out: % Enzyme Activity (relative to DMSO controls) Run 1
[8] = read-out: % Enzyme Activity (relative to DMSO controls) Run 2

T1 sequence (Q96RR4 whole entry): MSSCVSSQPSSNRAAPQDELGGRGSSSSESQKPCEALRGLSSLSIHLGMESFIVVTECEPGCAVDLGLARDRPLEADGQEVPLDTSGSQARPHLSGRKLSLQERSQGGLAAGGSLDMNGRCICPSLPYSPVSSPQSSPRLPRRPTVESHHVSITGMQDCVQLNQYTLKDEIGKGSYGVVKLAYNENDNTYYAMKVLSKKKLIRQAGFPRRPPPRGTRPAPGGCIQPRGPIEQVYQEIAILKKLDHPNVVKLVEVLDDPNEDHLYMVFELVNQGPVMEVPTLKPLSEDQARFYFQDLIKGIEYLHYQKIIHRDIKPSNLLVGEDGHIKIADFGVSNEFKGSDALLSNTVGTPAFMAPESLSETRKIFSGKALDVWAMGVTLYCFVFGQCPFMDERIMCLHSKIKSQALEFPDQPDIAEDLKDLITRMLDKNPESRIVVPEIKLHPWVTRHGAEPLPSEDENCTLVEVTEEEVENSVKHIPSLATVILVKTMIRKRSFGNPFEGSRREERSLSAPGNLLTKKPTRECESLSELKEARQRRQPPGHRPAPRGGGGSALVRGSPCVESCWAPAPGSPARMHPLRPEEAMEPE

Q: With C=CC(=O)Nc1cccc(Nc2nc(Nc3ccc(OCCOC)c(F)c3)ncc2F)c1 [Compound 2] as the compound, how does the inhibition at 3 µM [1] read?
A: 26.8%

Q: What about the remaining activity at 3 µM [1, 7] of the same compound?
A: 74.7%

Q: And the remaining activity at 3 µM [1, 8]?
A: 71.8%

Q: What about the inhibition at 3 µM [2] of the same compound?
A: 75.1%

Q: And the remaining activity at 3 µM [2, 7]?
A: 25.7%

Q: What about the remaining activity at 3 µM [2, 8] of the same compound?
A: 24.1%

Q: And the inhibition at 3 µM [3]?
A: -18%

Q: What about the remaining activity at 3 µM [3, 7] of the same compound?
A: 112%

Q: And the remaining activity at 3 µM [3, 8]?
A: 124%

Q: And the inhibition at 3 µM [4]?
A: 20.4%

Q: And the remaining activity at 3 µM [4, 7]?
A: 79.5%

Q: What about the remaining activity at 3 µM [4, 8] of the same compound?
A: 79.7%

Q: What about the inhibition at 3 µM [5] of the same compound?
A: -4.03%

Q: And the remaining activity at 3 µM [5, 7]?
A: 102%

Q: And the remaining activity at 3 µM [5, 8]?
A: 106%

Q: And the inhibition at 3 µM [6]?
A: 12.9%

Q: What about the remaining activity at 3 µM [6, 7] of the same compound?
A: 87.2%

Q: What about the remaining activity at 3 µM [6, 8] of the same compound?
A: 87%
